According to patent US10377741B2, “Substituted heteroaryl aldehyde compounds and methods for their use in increasing tissue oxygenation” (Global Blood Therapeutics, Inc., priority 2011, dated 2019):

Experiments:
[1] = molecular target: T1, purified Hemoglobin S (HbS) (Homo sapiens, UniProt P68871+P69905, E7V); test: Modulation of hemoglobin oxygen affinity: oxygen equilibrium curves (HEMOX) in purified HbS; format: biochemical, human (homozygous sickle cell patients); conditions: compound at 30 μM; 25 μM purified HbS, 45 min at 37° C.
T1 construct: HbS was purified by a modified procedure; from tissue; host or cells: blood of homozygous sickle cell patients (CHORI); for the polymerization assay purified by the CRO VIRUSYS
Procedure: Oxygen equilibrium curves (OEC) in purified Hemoglobin S (HbS) were measured by the change in p50, the partial pressure of oxygen at which the heme binding sites in the HbS sample are 50% saturated with oxygen. HbS was purified by a modified procedure (Antonini and Brunori, 1971; Heomoglobin and Myoglobin in their Reactions with Ligands; North Holland Publishing Company; Amsterdam, London) from blood obtained from homozygous sickle cell patients though the Hemoglobinopathy Center at Children's Hospital Oakland Research Institute (CHORI) with Institutional Review Board approval. Oxygen equilibrium curves were carried out with a HEMOX analyzer, (TCS Scientific, New Hope, Pa.). Five hundred μL of 250 μM purified HbS were diluted into 4.5 mL of HEMOX buffer (30 mM TES, 130 mM NaCl, 5 mM KCl, pH=7.4) resulting in a final hemoglobin concentration of 25 μM. The compounds were added at the final desired concentrations. The mixture was incubated for 45 min at 37° C. and then transferred to the Hemox sample chamber. The samples were saturated with oxygen by flushing with compressed air for 10 minutes. The samples were then flushed with pure nitrogen and the absorbance of deoxy-Hb was recorded as a function of the solution pO2. The oxygen equilibrium data was then fit to the Hill Model to obtain values for p50. The deoxygenation curves for both HbS alone (control) and HbS in the presence of compound were collected with the TCS software. The p50 for purified Hbs was typically 13.8±1.6. Delta p50 values were obtained from the p50 value for control minus the p50 value for HbS treated with compound divided by the p50 value for the control.
The compounds of Table 1 that were where tested in the assay above were all found to have positive delta p50 values. Delta p50% is calculated from [[p50(HbS) −p50(HbS treated with compound)]/p50(HbS)]×100. Table 2 below lists the delta p50% values where + indicates a delta p50% of between 0 and 29, ++ indicates a delta p50% of between 30 and 50, and +++ indicates a delta p50% of 50 or greater. Unless noted otherwise, the compounds in Table 2 were tested at 30 μM.

HbS/A = molecular target: T2, HbS/A (Homo sapiens, UniProt P68871+P69905, E7V); test: R/T assay (relaxed-to-tense transition under deoxygenated conditions); format: biochemical, human (homozygous sickle cell patients); conditions: compound at 9 μM; 3 μM HbS/A; % R remaining vs no treatment
T2 construct: A mixture of HbS/A was purified from blood; from tissue; host or cells: blood of homozygous sickle cell patients (CHORI)
Procedure: A relaxed-to-tense transition assay (“R/T assay”) was used to determine the ability of substituted benzaldehyde compounds to maintain the high-oxygen affinity relaxed (R) state of hemoglobin under deoxygenated conditions. This ability can be expressed as a “delta R” value (i.e., the change in the time-period of the R state after hemoglobin is treated with a compound, as compared to the period without treatment with the compound). Delta R is the % R to remaining after the compounds treatment compared with no treatment (e.g. if R % without treatment is 8% while with treatment with a target compound is 48% R at 30 μM, then % R is 40% for that compound.
A mixture of HbS/A was purified from blood obtained from homozygous sickle cell patients though the Hemoglobinopathy Center at Children's Hospital Oakland Research Institute (CHORI) with Institutional Review Board approval. HbS/A (at a final concentration of 3 μM) was incubated for 1 hr at 37° C. in presence or absence of compounds in […] potassium phosphate buffer, pH=7.4 and 30 μM 2, 3 diphosphoglycerate (DPG) in 96 well plates in a final volume of 160 μl. Compounds were added at different concentrations (3 μM to 100 μM final concentrations). Plates were covered with a Mylar film. After incubation was completed the Mylar cover was removed and the plates were placed in a Spectrostar Nano plate reader previously heated at 37° C. Five minutes later, N2 (flow rate=20 L/min) was flowed through the spectrophotometer. Spectroscopic measurements (300 nm to 700 nm) were taken every 5 min for 2 hours. Data analysis was performed by using linear regression from the data retrieved for all wavelengths.
Table 4 below lists the delta R values where + indicates a delta R of between 0 and 30, ++ indicates a delta R of between 30 and 50, and +++ indicates a delta R of 50 or greater. Unless noted otherwise, the compounds in Table 2 were tested at 30 μM.

Compound	delta p50% [1]	delta R (HbS/A)
COc1cc(C=O)c(OCc2cncc(C)c2)cn1 [Compound 43, 2-methoxy-5-((5-methylpyridin-3-yl)methoxy)isonicotinaldehyde]	++ (a delta p50% of between 30 and 50)	+ (a delta R of between 0 and 30)
COc1cc(C=O)c(OCc2ccc3ccccc3n2)cn1 [Compound 45, 2-methoxy-5-(quinolin-2-ylmethoxy)isonicotinaldehyde]	+++ (a delta p50% of 50 or greater)	++ (a delta R of between 30 and 50)
COc1cc(C=O)c(OCc2ccncc2)cn1 [Compound 46, 2-methoxy-5-(pyridin-4-ylmethoxy)isonicotinaldehyde]	++ (a delta p50% of between 30 and 50)	+ (a delta R of between 0 and 30)
COC(=O)c1cccn2cc(COc3cnc(OC)cc3C=O)nc12 [Compound 53, methyl 2-((4-formyl-6-methoxypyridin-3-yloxy)methyl)imidazo[1,2-a]pyridine-8-carboxylate]	++ (a delta p50% of between 30 and 50)	+ (a delta R of between 0 and 30)
COc1cc(C=O)c(OCc2cccnc2Br)cn1 [Compound 63, 5-((2-bromopyridin-3-yl)methoxy)-2-methoxyisonicotinaldehyde]	+++ (a delta p50% of 50 or greater)	++ (a delta R of between 30 and 50)
COc1cc(C=O)c(OCc2cncc(Br)c2)cn1 [Compound 66, 5-((5-bromopyridin-3-yl)methoxy)-2-methoxyisonicotinaldehyde]	++ (a delta p50% of between 30 and 50)	++ (a delta R of between 30 and 50)
COc1cc(C=O)c(OCc2cccc3c2cnn3C)cn1 [Compound 84, 2-methoxy-5-((1-methyl-1H-indazol-4-yl)methoxy)isonicotinaldehyde]	++ (a delta p50% of between 30 and 50)	++ (a delta R of between 30 and 50)
Cc1ccc(OCc2cccc3c2cnn3C(=O)OC(C)(C)C)c(C=O)n1 [Compound 86, tert-butyl 4-((2-formyl-6-methylpyridin-3-yloxy)methyl)-1H-indazole-1-carboxylate]	++ (a delta p50% of between 30 and 50)	+ (a delta R of between 0 and 30)
Cc1ccc(OCc2ccc3cnn(C)c3c2)c(C=O)n1 [Compound 91, 6-methyl-3-((1-methyl-1H-indazol-6-yl)methoxy)picolinaldehyde]	++ (a delta p50% of between 30 and 50)	+++ (a delta R of 50 or greater)
Cc1ccc(OCc2cccc3ncccc23)c(C=O)n1 [Compound 119, 6-methyl-3-(quinolin-5-ylmethoxy)picolinaldehyde]	++ (a delta p50% of between 30 and 50)	++ (a delta R of between 30 and 50)
COc1cc(C=O)c(OCc2cccnc2-n2cccn2)cn1 [Compound 134, 5-((2-(1H-pyrazol-1-yl)pyridin-3-yl)methoxy)-2-methoxyisonicotinaldehyde]	++ (a delta p50% of between 30 and 50)	+ (a delta R of between 0 and 30)
Cc1ccc(OCc2cccnc2-n2cccn2)c(C=O)n1 [Compound 135, 3-((2-(1H-pyrazol-1-yl)pyridin-3-yl)methoxy)-6-methylpicolinaldehyde]	+ (a delta p50% of between 0 and 29)	–
Cc1ccc(OCc2cccnc2)c(C=O)n1 [Compound 136, 6-methyl-3-(pyridin-3-ylmethoxy)picolinaldehyde]	+ (a delta p50% of between 0 and 29)	–
COC(=O)c1cc(COc2cnc(OC)cc2C=O)c2nccn2c1 [Compound 137, methyl 8-(((4-formyl-6-methoxypyridin-3-yl)oxy)methyl)imidazo[1,2-a]pyridine-6-carboxylate]	+ (a delta p50% of between 0 and 29)	–
COC(=O)c1cc(COc2cnc(OC)cc2C=O)c2nc(Br)cn2c1 [Compound 138, methyl 2-bromo-8-(((4-formyl-6-methoxypyridin-3-yl)oxy)methyl)imidazo[1,2-a]pyridine-6-carboxylate]	+ (a delta p50% of between 0 and 29)	–
Cc1ccc(OCc2cccn3cncc23)c(C=O)n1 [Compound 139, 3-(imidazo[1,5-a]pyridin-8-ylmethoxy)-6-methylpicolinaldehyde]	+ (a delta p50% of between 0 and 29)	–
COC(=O)c1cncc(COC(=O)c2cncc(COc3cnc(OC)cc3C=O)c2)c1 [Compound 141, (5-(methoxycarbonyl)pyridin-3-yl)methyl 5-(((4-formyl-6-methoxypyridin-3-yl)oxy)methyl)nicotinate]	+ (a delta p50% of between 0 and 29)	–
COc1cc(C=O)c(OCc2cccnc2-c2c(C)cnn2C)cn1 [Compound 142, 5-((2-(1,4-dimethyl-1H-pyrazol-5-yl)pyridin-3-yl)methoxy)-2-methoxyisonicotinaldehyde]	+ (a delta p50% of between 0 and 29)	–
COc1cc(C=O)c(OCc2cccnc2-c2cccnc2)cn1 [Compound 161, 5-([2,3′-bipyridin]-3-ylmethoxy)-2-methoxyisonicotinaldehyde]	++ (a delta p50% of between 30 and 50)	+ (a delta R of between 0 and 30)
COCCn1nccc1-c1ncccc1COc1cnc(OC)cc1C=O [Compound 172, 2-methoxy-5-((2-(1-(2-methoxyethyl)-1H-pyrazol-5-yl)pyridin-3-yl)methoxy)isonicotinaldehyde]	++ (a delta p50% of between 30 and 50)	+ (a delta R of between 0 and 30)
COc1cc(C=O)c(OCc2cccnc2-c2ccnn2COCC[Si](C)(C)C)cn1 [Compound 193, 2-methoxy-5-((2-(1-((2-(trimethylsilyl)ethoxy)methyl)-1H-pyrazol-5-yl)pyridin-3-yl)methoxy)isonicotinaldehyde]	++ (a delta p50% of between 30 and 50)	+ (a delta R of between 0 and 30)
